The source made the active and inactive calls. The calls are words filed in the database; no cut-off is given here.
Experiments:
[1] = target: T1, Alpha-ketoglutarate-dependent dioxygenase alkB homolog 3 (Homo sapiens, UniProt Q96Q83); assay: Inhibition of demethylase activity of PCA-1 (unknown origin) using 3-methyl cytosine oligo DNA as substrate after 1 hr by RT-PCR analysis
T1 sequence (Q96Q83 whole entry): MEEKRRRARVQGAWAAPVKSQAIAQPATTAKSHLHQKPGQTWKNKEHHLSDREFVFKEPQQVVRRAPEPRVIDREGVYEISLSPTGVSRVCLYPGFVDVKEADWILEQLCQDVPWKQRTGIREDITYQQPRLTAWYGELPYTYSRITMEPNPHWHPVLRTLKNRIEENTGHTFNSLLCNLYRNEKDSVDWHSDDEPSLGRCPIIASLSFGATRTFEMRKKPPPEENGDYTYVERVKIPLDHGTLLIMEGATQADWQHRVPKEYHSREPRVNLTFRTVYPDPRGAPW

[2] = target: T2, Alpha-ketoglutarate-dependent dioxygenase alkB homolog 3 (Homo sapiens) (UniProt Q96Q83); assay: Inhibition of demethylase activity of PCA-1 (unknown origin) using 3-methyl cytosine oligo DNA as […] after 1 hr by RT-PCR analysis
T2 sequence (whole entry): T1 sequence (Q96Q83 whole entry)

DU-145 [3] = assay: Antiproliferative activity against human DU145 cells at 10 uM after 48 hrs by 2-D dish-based WST-assay; type: functional; settings: DU-145, 48 h
DU-145 [4] = assay: Antiproliferative activity against human DU145 cells at 10 uM after 7 days by 3-D agar-based WST-assay; type: functional; settings: DU-145, 168 h
DU-145 [5] = assay: Antiproliferative activity against human DU145 cells at 1 uM after 7 days by 3-D agar-based WST-assay; type: functional; settings: DU-145, 168 h
[6] = Drug level in Sprague-Dawley rat serum at 32 mg/kg, po after 1 hr; type: ADME, organism-based; set-up: dose 32 mg/kg, route oral
DU-145 [7] = assay: Antiproliferative activity against human DU145 cells at 1 uM after 48 hrs by 2-D dish-based WST-assay; type: functional; settings: DU-145, 48 h
DU-145 [8] = assay: Anticancer activity against human DU145 cells xenografted in mouse assessed as tumor growth inhibition at 32 mg/kg, sc administered daily for 6 days; type: functional, organism-based; set-up: dose 32 mg/kg
[9] = Initial plasma concentration in Sprague-Dawley rat serum at 0.5 mg/kg, iv; type: ADME, organism-based; set-up: dose 0.5 mg/kg, route intravenous
Mus musculus [10] = assay: Toxicity in human DU145 cells xenografted mouse model assessed as body weight at 32 mg/kg, sc administered daily for 6 days; type: organism-based, DU-145; set-up: dose 32 mg/kg, route subcutaneous; settings: in vivo, 144 h
[11] = Oral bioavailability in Sprague-Dawley rat at 32 mg/kg; type: ADME, organism-based; settings: in vivo
[12] = Cmax in Sprague-Dawley rat serum at 32 mg/kg, po; type: ADME, organism-based; set-up: dose 32 mg/kg, route oral
[13] = AUC (0 to 24 hrs) in Sprague-Dawley rat serum at 32 mg/kg, po; type: ADME, organism-based; set-up: time < 24 hr, dose 32 mg/kg, route oral
[14] = AUC (0 to 24 hrs) in Sprague-Dawley rat serum at 0.5 mg/kg, iv; type: ADME, organism-based; set-up: time < 24 hr, dose 0.5 mg/kg, route intravenous
Mus musculus [15] = assay: Toxicity in human DU145 cells xenografted mouse model assessed as abnormal behavior at 32 mg/kg, sc administered daily for 6 days; type: organism-based, DU-145; set-up: dose 32 mg/kg, route subcutaneous; settings: in vivo, 144 h
Mus musculus [16] = assay: Toxicity in human DU145 cells xenografted mouse model assessed as abnormality in organs at 32 mg/kg, sc administered daily for 6 days; type: organism-based, DU-145; set-up: dose 32 mg/kg, route subcutaneous; settings: in vivo, 144 h
[17] = target: T2, Alpha-ketoglutarate-dependent dioxygenase alkB homolog 3 (Homo sapiens); settings: 10 uM
Description: Inhibition of PCA-1 (unknown origin) at 10 uM

| Structure (SMILES) | IC50 [1] | also measured |
| --- | --- | --- |
| Cc1[nH]n(-c2nc3cc(-c4ccccc4)ccc3[nH]2)c(=O)c1Cc1ccccc1 | 810 nM | – |
| Cc1ccc2[nH]c(-n3[nH]c(C)c(Cc4ccc(F)cc4)c3=O)nc2c1 | 780 nM | – |
| Cc1[nH]n(-c2ccccn2)c(=O)c1C | > 10000 nM | inhibition [2]: -4% |
| COC(=O)Cc1c(C)[nH]n(-c2nc3ccccc3[nH]2)c1=O | 4300 nM | – |
| Cc1[nH]n(-c2nc3ccc(C(C)(C)C)cc3[nH]2)c(=O)c1Cc1ccccc1 | 640 nM | – |
| Cc1[nH]n(-c2nc3ccccc3[nH]2)c(=O)c1Cc1cccc(Cl)c1 | 540 nM | – |
| Cc1ccc2[nH]c(-n3[nH]c(C)c(Cc4ccc(Cl)c(Cl)c4)c3=O)nc2c1 | 720 nM | – |
| Cc1[nH]n(-c2ncccn2)c(=O)c1C | > 10000 nM | inhibition [2]: -4% |
| Cc1ccc2[nH]c(-n3[nH]c(C)c(C)c3=O)nc2c1 | 2600 nM | inhibition at 10 µM (DU-145 [3]): 19%; inhibition at 10 µM (DU-145 [4]): 69%; inhibition at 1 µM (DU-145 [5]): 3.8%; concentration at 1 h [6]: 1080 ng/mL; inhibition at 1 µM (DU-145 [7]): -11% |
| Cc1[nH]n(-c2nc3ccccc3[nH]2)c(=O)c1Cc1ccc(Cl)cc1Cl | > 10000 nM | inhibition [2]: 11% |
| Cc1ccc2nc(-n3[nH]c(C)c(Cc4ccc(C(F)(F)F)cc4)c3=O)[nH]c2c1 | 570 nM | – |
| Oc1c(-c2ccccc2)c(-c2ccccc2)nn1-c1nc2cc(Cl)ccc2[nH]1 | 2000 nM | – |
| Cc1ccc2[nH]c(-n3[nH]c(C)c(Cc4ccc(Cl)cc4)c3=O)nc2c1 | 750 nM | inhibition at 10 µM (DU-145 [3]): 46%; inhibition at 10 µM (DU-145 [4]): 90%; inhibition at 1 µM (DU-145 [5]): 2.8%; inhibition at 1 µM (DU-145 [7]): -1% |
| Cc1[nH]n(-c2nc3ccccc3[nH]2)c(=O)c1Cc1ccc(Cl)c(Cl)c1 | 3100 nM | – |
| Cc1ccc2nc(-n3[nH]c(C)c(Cc4ccccc4)c3=O)[nH]c2c1C | > 10000 nM | – |
| Cc1[nH]n(-c2nc3cc(Cl)ccc3[nH]2)c(=O)c1Cc1ccccc1 | 4500 nM | inhibition at 10 µM (DU-145 [4]): 87%; inhibition at 1 µM (DU-145 [5]): 84%; inhibition at 1 µM (DU-145 [7]): 86% |
| Cc1[nH]n(-c2nc3cc(C(F)(F)F)ccc3[nH]2)c(=O)c1Cc1ccccc1 | 610 nM | inhibition at 10 µM (DU-145 [3]): 84%; inhibition at 10 µM (DU-145 [4]): 92%; inhibition at 1 µM (DU-145 [5]): 90%; inhibition at 1 µM (DU-145 [7]): 78% |
| Cc1[nH]n(-c2nc3ccccc3[nH]2)c(=O)c1Cc1ccc(-c2ccccc2)cc1 | 720 nM | – |
| Cc1ccc2[nH]c(-n3[nH]c(C)c(Cc4ccccc4)c3=O)nc2c1 | – | inhibition at 10 µM (DU-145 [3]): 54%; inhibition at 10 µM (DU-145 [4]): 81%; TGI (DU-145 [8]): Active; inhibition at 1 µM (DU-145 [5]): 34%; inhibition at 1 µM (DU-145 [7]): 35% |
| Cc1[nH]n(-c2nc3ccccc3s2)c(=O)c1C | > 10000 nM | inhibition [2]: -3% |
| Cc1[nH]n(-c2nc3ccccc3[nH]2)c(=O)c1Cc1ccc2ccccc2c1 | 750 nM | – |
| Cc1cc(O)n(-c2nc3ccccc3[nH]2)n1 | 3600 nM | – |
| Cc1[nH]n(-c2ccccn2)c(=O)c1C(=O)Nc1ccccc1 | 1700 nM | inhibition at 10 µM (DU-145 [3]): 25% |
| Cc1[nH]n(-c2nc3c(C)cccc3[nH]2)c(=O)c1Cc1ccccc1 | 5900 nM | – |
| Cc1ccc2nc(-n3[nH]c(C)c(Cc4ccccc4)c3=O)[nH]c2c1 | 670 nM | C0 [9]: 430 ng/mL; Activity (Mus musculus [10]): Non-toxic; bioavailability [11]: 7.2%; Cmax [12]: 350 ng/mL; AUC(0-t) at 24 h [13]: 690 ng·h/mL; AUC(0-t) at 24 h [14]: 150 ng·h/mL |

| Structure (SMILES) | IC50 [1] | also measured |
| --- | --- | --- |
| Cc1[nH]n(-c2nc3ccccc3[nH]2)c(=O)c1Cc1ccc(C(C)(C)C)cc1 | 4100 nM | – |
| Cc1ccc2[nH]c(-n3[nH]c(-c4ccccc4)c(C)c3=O)nc2c1 | 3300 nM | – |
| Cc1[nH]n(-c2nc3ccccc3o2)c(=O)c1C | > 10000 nM | inhibition [2]: 0% |
| Cc1nn(-c2nc3ccccc3[nH]2)c(O)c1Cc1ccccc1 | 480 nM | inhibition at 10 µM (DU-145 [3]): 47%; inhibition at 10 µM (DU-145 [4]): 90%; inhibition at 1 µM (DU-145 [5]): 42%; inhibition at 1 µM (DU-145 [7]): 42% |
| Cc1[nH]n(-c2nc3ccccc3[nH]2)c(=O)c1CC(=O)O | 15000 nM | – |
| Cc1[nH]n(-c2nc3cc(Br)ccc3[nH]2)c(=O)c1Cc1ccccc1 | 490 nM | – |
| Cc1[nH]n(-c2nc3ccccc3[nH]2)c(=O)c1Cc1ccc(C(F)(F)F)cc1 | 550 nM | – |
| COc1ccc(Cc2c(C)[nH]n(-c3nc4ccccc4[nH]3)c2=O)cc1 | 630 nM | Activity (Mus musculus [15]): Non-toxic; Activity (Mus musculus [16]): Non-toxic |
| Cc1ccc2nc(-n3[nH]c(C)c(Cc4ccc(-c5ccccc5)cc4)c3=O)[nH]c2c1 | 5300 nM | – |
| Cc1[nH]n(-c2nc3ccccc3[nH]2)c(=O)c1C | 4000 nM | inhibition at 10 µM (DU-145 [3]): 0.8%; inhibition [17]: 76% |
| Cc1ccc2[nH]c(-n3[nH]c(C)c(Cc4ccc(C(C)(C)C)cc4)c3=O)nc2c1 | 3700 nM | – |
| Cc1[nH]n(-c2nc3c(C)cccc3[nH]2)c(=O)c1C | > 10000 nM | – |
| Cc1ccc2[nH]c(-n3[nH]c(C)c(Cc4ccccc4Cl)c3=O)nc2c1 | 910 nM | – |
| Cc1[nH]n(-c2nc3cc(-c4ccc(Cl)cc4)ccc3[nH]2)c(=O)c1Cc1ccccc1 | 1500 nM | inhibition at 10 µM (DU-145 [3]): 63%; inhibition at 10 µM (DU-145 [4]): 100%; inhibition at 1 µM (DU-145 [5]): 91%; inhibition at 1 µM (DU-145 [7]): 70% |
| Cc1c(-c2ccccc2)[nH]n(-c2nc3ccccc3[nH]2)c1=O | > 10000 nM | – |
| Cc1[nH]n(-c2nc3ccccc3[nH]2)c(=O)c1Cc1ccc(F)cc1 | 600 nM | – |
| Cc1ccc(-c2ccc3[nH]c(-n4[nH]c(C)c(Cc5ccccc5)c4=O)nc3c2)cc1 | 2100 nM | – |
| O=c1c(Cc2ccccc2)c(-c2ccccc2)[nH]n1-c1nc2ccccc2[nH]1 | > 10000 nM | inhibition [2]: 2% |
| Cc1[nH]n(-c2nc3ccccc3[nH]2)c(=O)c1Cc1ccc(Cl)cc1 | > 10000 nM | inhibition [2]: 46% |
| Cc1[nH]n(-c2nc3ccccc3n2C)c(=O)c1C | > 10000 nM | inhibition [2]: 21% |
| COc1ccc(Cc2c(C)[nH]n(-c3nc4ccc(C)cc4[nH]3)c2=O)cc1 | 680 nM | – |
| Cc1[nH]n(-c2nc3ccccc3[nH]2)c(=O)c1Cc1ccccc1Cl | > 10000 nM | – |
| O=c1cc(-c2ccccc2)[nH]n1-c1nc2ccccc2[nH]1 | 7200 nM | – |
| Cc1[nH]n(-c2ccccc2)c(=O)c1C | > 10000 nM | inhibition [2]: 20% |
| Cc1ccc2[nH]c(-n3nc(-c4ccccc4)c(-c4ccccc4)c3O)nc2c1 | 5800 nM | – |
